Each structure is given as a SMILES string. Some results are limits rather than exact numbers.

As a reminder, the IC50 is the concentration needed to halve the response being measured. Lower therefore signals higher potency.

The assay deals with T1, human cannabinoid receptor, CB1 (Homo sapiens, UniProt P21554).
T1 construct: (cDNA clone) CNR01L000; membranes prepared from it
T1 sequence (P21554 whole entry): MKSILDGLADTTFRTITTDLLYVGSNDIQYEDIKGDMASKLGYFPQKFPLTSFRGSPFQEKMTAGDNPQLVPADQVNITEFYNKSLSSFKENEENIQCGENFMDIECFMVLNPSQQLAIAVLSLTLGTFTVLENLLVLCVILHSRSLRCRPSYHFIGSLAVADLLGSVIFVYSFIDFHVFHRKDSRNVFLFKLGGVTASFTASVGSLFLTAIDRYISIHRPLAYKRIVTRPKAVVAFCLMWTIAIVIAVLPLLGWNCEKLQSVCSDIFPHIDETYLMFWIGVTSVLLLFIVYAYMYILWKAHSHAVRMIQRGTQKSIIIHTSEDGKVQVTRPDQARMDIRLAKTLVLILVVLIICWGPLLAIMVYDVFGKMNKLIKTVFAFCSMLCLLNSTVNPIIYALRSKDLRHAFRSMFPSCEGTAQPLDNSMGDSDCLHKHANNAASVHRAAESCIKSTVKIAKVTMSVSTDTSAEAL
The assay is described as follows: Human CB1 cannabinoid receptor radioligand binding assay ([3H]-CP 55,940). Particulars: Table 4. From the text:
cDNA expression clones for human CB1 (hCB 1, Genbank Accession No. AY225225) expressed in vector pcDNA3.1+ were purchased from UMR cDNA Resource Center, Rolla, Mo. (Clone ID CNR01L000 for hCB 1).
Stable, HEK-293-derived cell lines that recombinantly express hCB 1 were established. In brief, the clone hCB 1 (CNR1L) was transfected into human embryonic kidney cells (HEK-293) using Lipofectamine 2000 (Gibco, Cat#11668-019) according to the manufacturer's protocol. Transfected clones were isolated by single colony purification and clones were screened for receptor expression using a whole cell, ^3H-CP 55,940 radioligand binding assay. HEK-293 stable cells were maintained in Dulbecco's modified Eagles medium (DMEM) containing 10% fetal bovine serum, 2 mM L-glutamine and 0.5 mg/mL G-418.
Membranes were isolated from transfected cells as follows. Monolayers of cultured cells were washed twice with phosphate-buffered saline (PBS). […] Protein concentration of membrane suspensions were measured by Bradford Protein Assay using bovine serum albumin as the standard (BioRad catalog #500-0006). […]
Radioligand binding assays were performed by incubating membranes (2-10 ug protein) prepared from HEK-293 cells expressing recombinant human cannabinoid receptor, CB1, at room temperature with 0.5 nM cannabinoid receptor agonist, [^3H]-CP 55,940 (Perkin Elmer, catalog #NET1051) in 0.2 mL of binding buffer (50 mM Tris-HCl, pH 7.5, 5 mM MgCl2, 2.5 mM EDTA) and 0.1% fatty acid free bovine serum albumin (Sigma Cat. #A0821) for 90 minutes. […] The radioactivity bound to the filters was counted with 0.05 mL of liquid scintillant (UltraGold MV, PerkinElmer catalog #6013159) in a scintillation counter (Perkin Elmer Microbeta instrument). Nonspecific binding was determined in the presence of unlabeled 1 uM CP 55,940 (Sigma Aldrich, catalog #C1112). Binding data were analyzed using GraphPad Prism (GraphPad Software, Inc. San Diego, Calif.).
For `COc1cc(NC(=O)C(=O)c2c(C)n(Cc3ncc(Cl)cc3F)c3cc(F)c(OC)cc23)ccn1` [Compound 99, 2-(1-((5-chloro-3-fluoropyridin-2-yl)methyl)-6-fluoro-5-methoxy-2-methyl-1H-indol-3-yl)-N-(2-methoxypyridin-4-yl)-2-oxoacetamide], the IC50 was 1 to 10 µM. In turn, `COc1ccc2c(c1)c(C(=O)C(=O)Nc1ccnc(OC)c1)c(C)n2Cc1ncc(Cl)cc1OC` [Compound 100, 2-(1-((5-chloro-3-methoxypyridin-2-yl)methyl)-5-methoxy-2-methyl-1H-indol-3-yl)-N-(2-methoxypyridin-4-yl)-2-oxoacetamide] returned a half-inhibitory concentration (IC50) of over 10 µM. The value for `COc1cc(NC(=O)C(=O)c2c(C)n(Cc3ncc(F)cc3F)c3cc(F)c(OC)cc23)ccn1` [Compound 101, 2-(1-((3,5-difluoropyridin-2-yl)methyl)-6-fluoro-5-methoxy-2-methyl-1H-indol-3-yl)-N-(2-methoxypyridin-4-yl)-2-oxoacetamide] was 1 to 10 µM.
